Values quoted from earlier work as cited in patent US9328386B2, “Markers for susceptibility to an inhibitor of an Src-family kinase” (Evotec (München) GmbH, priority 2011, dated 2016).

Assays:
CSK = CSK (Homo sapiens, UniProt P41240); settings: cited from earlier work
MET = MET (Homo sapiens, UniProt P08581); settings: cited from earlier work
SFK = settings: cited from earlier work
LCK = LCK (Homo sapiens, UniProt P06239); settings: cited from earlier work
EGFR = EGFR (Homo sapiens, UniProt P00533); settings: cited from earlier work
YES = YES (Homo sapiens, UniProt P07947); settings: unit not given; cited from earlier work
FGFR1 = FGFR1 (Homo sapiens, UniProt P11362); settings: cited from earlier work
VEGFR = settings: cited from earlier work
SRC = SRC (Homo sapiens, UniProt P12931); settings: cited from earlier work
Sequence of SRC (P12931 whole entry, species assumed): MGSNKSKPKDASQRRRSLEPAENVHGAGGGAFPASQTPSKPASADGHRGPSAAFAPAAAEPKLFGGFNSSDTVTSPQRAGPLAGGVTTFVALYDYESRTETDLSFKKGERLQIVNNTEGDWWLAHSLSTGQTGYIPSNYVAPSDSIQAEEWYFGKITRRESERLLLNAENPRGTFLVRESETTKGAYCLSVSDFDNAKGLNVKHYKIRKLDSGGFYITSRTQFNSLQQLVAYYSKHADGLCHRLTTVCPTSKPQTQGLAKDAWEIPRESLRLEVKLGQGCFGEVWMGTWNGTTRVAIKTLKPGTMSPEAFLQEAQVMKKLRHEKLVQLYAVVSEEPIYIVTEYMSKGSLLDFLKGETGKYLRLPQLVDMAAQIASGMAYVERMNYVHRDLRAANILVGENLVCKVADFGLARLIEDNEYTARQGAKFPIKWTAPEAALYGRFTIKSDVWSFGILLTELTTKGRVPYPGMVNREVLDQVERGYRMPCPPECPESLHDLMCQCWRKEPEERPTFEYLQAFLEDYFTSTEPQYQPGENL

Sequence of CSK (P41240 whole entry, species assumed): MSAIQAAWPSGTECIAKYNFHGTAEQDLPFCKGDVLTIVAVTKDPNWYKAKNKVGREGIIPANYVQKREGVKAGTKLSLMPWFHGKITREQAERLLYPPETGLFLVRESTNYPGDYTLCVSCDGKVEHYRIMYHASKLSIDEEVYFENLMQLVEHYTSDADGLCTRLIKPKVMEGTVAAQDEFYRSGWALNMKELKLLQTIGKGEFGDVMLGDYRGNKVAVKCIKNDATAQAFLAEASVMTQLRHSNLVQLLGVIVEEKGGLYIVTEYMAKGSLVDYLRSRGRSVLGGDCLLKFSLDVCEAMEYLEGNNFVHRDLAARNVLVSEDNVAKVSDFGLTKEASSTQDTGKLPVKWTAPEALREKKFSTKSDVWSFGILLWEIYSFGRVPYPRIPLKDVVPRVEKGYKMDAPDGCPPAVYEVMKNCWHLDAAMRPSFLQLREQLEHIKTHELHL
Sequence of YES (P07947 whole entry, species assumed): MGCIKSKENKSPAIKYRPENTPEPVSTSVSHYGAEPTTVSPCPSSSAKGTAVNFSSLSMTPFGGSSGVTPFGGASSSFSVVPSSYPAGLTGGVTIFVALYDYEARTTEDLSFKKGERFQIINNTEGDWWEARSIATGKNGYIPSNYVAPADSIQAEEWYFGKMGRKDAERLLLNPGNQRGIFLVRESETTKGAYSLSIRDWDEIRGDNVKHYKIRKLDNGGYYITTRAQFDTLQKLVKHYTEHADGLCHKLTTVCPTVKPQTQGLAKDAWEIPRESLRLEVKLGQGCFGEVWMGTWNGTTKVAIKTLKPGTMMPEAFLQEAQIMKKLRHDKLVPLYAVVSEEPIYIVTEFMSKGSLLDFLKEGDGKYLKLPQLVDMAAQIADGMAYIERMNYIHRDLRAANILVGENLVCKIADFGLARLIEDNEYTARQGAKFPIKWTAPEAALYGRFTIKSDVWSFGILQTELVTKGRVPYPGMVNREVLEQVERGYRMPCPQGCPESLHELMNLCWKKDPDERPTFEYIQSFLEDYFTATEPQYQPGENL
Sequence of FGFR1 (P11362 22-822, species assumed): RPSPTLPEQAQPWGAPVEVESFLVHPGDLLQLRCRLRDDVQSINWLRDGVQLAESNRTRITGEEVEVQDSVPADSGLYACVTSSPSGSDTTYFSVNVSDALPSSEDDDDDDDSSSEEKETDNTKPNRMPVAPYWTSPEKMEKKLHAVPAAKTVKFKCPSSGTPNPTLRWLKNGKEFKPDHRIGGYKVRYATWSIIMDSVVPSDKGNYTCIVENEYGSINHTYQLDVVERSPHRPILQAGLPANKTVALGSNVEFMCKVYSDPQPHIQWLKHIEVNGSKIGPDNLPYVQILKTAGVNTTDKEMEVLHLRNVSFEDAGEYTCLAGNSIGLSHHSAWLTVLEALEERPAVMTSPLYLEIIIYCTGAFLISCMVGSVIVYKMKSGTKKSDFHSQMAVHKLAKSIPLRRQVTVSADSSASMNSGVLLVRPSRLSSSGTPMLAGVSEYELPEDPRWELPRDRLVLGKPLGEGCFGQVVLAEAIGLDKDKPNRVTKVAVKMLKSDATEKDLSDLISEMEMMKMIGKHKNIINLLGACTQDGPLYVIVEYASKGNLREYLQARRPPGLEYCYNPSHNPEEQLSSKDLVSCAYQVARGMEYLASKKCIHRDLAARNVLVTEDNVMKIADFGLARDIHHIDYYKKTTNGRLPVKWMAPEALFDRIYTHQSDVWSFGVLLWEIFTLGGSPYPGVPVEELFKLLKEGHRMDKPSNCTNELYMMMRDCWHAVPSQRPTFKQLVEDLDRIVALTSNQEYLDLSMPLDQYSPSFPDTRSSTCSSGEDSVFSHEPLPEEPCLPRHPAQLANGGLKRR
Sequence of LCK (P06239 whole entry, species assumed): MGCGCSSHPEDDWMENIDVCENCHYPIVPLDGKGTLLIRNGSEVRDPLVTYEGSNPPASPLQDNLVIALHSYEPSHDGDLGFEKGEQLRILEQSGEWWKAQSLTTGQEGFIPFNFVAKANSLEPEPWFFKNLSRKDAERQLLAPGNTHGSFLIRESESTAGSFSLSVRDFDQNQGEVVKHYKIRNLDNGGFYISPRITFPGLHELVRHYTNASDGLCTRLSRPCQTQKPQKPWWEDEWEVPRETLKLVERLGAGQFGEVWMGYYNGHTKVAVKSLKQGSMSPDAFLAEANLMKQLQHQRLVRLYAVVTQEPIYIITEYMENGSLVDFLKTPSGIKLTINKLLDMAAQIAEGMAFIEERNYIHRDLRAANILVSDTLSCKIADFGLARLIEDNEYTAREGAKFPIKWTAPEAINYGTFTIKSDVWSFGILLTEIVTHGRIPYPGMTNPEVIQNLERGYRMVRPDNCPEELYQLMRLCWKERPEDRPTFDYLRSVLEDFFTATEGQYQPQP
Sequence of EGFR (P00533 25-1210, species assumed): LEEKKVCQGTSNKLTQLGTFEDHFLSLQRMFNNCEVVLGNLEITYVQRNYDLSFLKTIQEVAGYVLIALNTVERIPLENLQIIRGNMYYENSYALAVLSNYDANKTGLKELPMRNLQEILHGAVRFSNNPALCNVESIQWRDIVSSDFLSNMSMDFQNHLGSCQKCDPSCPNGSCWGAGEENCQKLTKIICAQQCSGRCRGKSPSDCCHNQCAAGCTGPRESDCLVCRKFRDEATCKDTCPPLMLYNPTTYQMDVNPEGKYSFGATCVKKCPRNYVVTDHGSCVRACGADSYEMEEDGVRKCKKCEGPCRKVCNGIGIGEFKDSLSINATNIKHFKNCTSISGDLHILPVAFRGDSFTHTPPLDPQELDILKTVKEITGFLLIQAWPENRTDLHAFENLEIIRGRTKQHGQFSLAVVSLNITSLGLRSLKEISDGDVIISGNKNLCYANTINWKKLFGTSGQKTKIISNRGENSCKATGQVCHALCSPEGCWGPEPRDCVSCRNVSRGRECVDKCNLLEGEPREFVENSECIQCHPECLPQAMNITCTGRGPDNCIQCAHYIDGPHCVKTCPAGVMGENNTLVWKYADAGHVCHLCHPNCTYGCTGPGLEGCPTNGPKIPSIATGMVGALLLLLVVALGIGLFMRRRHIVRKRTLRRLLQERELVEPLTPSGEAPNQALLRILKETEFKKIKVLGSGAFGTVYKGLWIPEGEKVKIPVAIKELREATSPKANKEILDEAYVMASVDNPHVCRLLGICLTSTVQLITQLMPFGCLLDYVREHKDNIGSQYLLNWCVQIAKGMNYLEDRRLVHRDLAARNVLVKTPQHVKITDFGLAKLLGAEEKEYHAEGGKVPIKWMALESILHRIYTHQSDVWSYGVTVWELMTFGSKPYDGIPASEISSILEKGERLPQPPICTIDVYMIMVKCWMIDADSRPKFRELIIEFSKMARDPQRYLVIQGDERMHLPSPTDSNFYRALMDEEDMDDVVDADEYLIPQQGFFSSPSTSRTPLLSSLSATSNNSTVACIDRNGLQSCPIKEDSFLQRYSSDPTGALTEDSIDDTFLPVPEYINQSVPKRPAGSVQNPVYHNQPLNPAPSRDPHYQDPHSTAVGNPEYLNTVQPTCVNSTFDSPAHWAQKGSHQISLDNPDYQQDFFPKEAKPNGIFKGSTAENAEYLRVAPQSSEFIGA

| Compound | Affinities (basic outline) (CSK) [µM] | Affinities (basic outline) (MET) [nM] | Affinities (basic outline) (SFK) [nM] | Affinities (basic outline) (LCK) [nM] | Affinities (basic outline) (EGFR) [nM] | Affinities (basic outline) (YES) | Affinities (basic outline) (FGFR1) [µM] | Affinities (basic outline) (VEGFR) [nM] | Affinities (basic outline) (SRC) [nM] |
| --- | --- | --- | --- | --- | --- | --- | --- | --- | --- |
| CN(C)S(=O)(=O)c1ccc2c(c1)/C(=C/c1cc3c([nH]1)CCCC3)C(=O)N2 [SU6656, (2-oxo-3-(4,5,6,7-tetrahydro-1H-indol-2-ylmethylene)-2,3-dihydro-1H-indole-5-sulfonic acid dimethylamide)] | 0.007 | 3 | 0.02 to 6.88 | – | – | – | – | – | – |
| COc1ccc(Cl)c(Nc2ncnc3cc(OCC4CCN(C)CC4)c(OC)cc23)c1 [M475271, 4-quinazolinamine, N-(2-chloro-5-methoxyphenyl)-6-methoxy-7-[(1-methyl-4-piperidinyl)methoxy]-(9Cl)] | 7.6 | – | – | 200 | 600 | 10 | 20 | 500 | 25 |
